In patent US20260130395A1, “Water Dispersible Botanical Compositions” (Aquila Black Limited, priority 2021, published 2026):

Experiment: Stability of cannabinoid compounds and Vitamin E components in Beverage 2 (AB Red) by LCMSMS
Format: physicochemical

Structure (SMILES): CCCCCc1cc(O)c2c(c1)OC(C)(C)c1ccc(C)cc1-2 [CBN, cannabinol]
- Stability of Plant-Derived Cannabinoid Compounds in AB Red (stored at 8° C., 0 days): 2.81 µg/mL
- Stability of Plant-Derived Cannabinoid Compounds in AB Red (stored at 8° C., 1 days): 2.82 µg/mL
- Stability of Plant-Derived Cannabinoid Compounds in AB Red (stored at 8° C., 2 days): 2.74 µg/mL
- Stability of Plant-Derived Cannabinoid Compounds in AB Red (stored at 8° C., 3 days): 2.83 µg/mL
- Stability of Plant-Derived Cannabinoid Compounds in AB Red (stored at 8° C., 5 days): 2.78 µg/mL
- Stability of Plant-Derived Cannabinoid Compounds in AB Red (stored at 8° C., 8 days): 2.80 µg/mL
- Stability of Plant-Derived Cannabinoid Compounds in AB Red (stored at 8° C., 9 days): 2.74 µg/mL
- Stability of Plant-Derived Cannabinoid Compounds in AB Red (stored at 8° C., 10 days): 2.79 µg/mL
- Stability of Plant-Derived Cannabinoid Compounds in AB Red (stored at 8° C., 11 days): 2.73 µg/mL
- Stability of Plant-Derived Cannabinoid Compounds in AB Red (stored at 8° C., 12 days): 2.76 µg/mL
- Stability of Plant-Derived Cannabinoid Compounds in AB Red (stored at 8° C., 15 days): 2.77 µg/mL
- Stability of Plant-Derived Cannabinoid Compounds in AB Red (stored at 8° C., 16 days): 2.83 µg/mL
- Stability of Plant-Derived Cannabinoid Compounds in AB Red (stored at 8° C., 17 days): 2.80 µg/mL
- Stability of Plant-Derived Cannabinoid Compounds in AB Red (stored at 8° C., 18 days): 2.78 µg/mL
- Stability of Plant-Derived Cannabinoid Compounds in AB Red (stored at 8° C., 19 days): 2.78 µg/mL
- Stability of Plant-Derived Cannabinoid Compounds in AB Red (stored at 8° C., 22 days): 2.73 µg/mL
- Stability of Plant-Derived Cannabinoid Compounds in AB Red (stored at 8° C., 23 days): 2.79 µg/mL
- Stability of Plant-Derived Cannabinoid Compounds in AB Red (stored at 8° C., 24 days): 2.76 µg/mL
- Stability of Plant-Derived Cannabinoid Compounds in AB Red (stored at 8° C., 25 days): 2.83 µg/mL
- Stability of Plant-Derived Cannabinoid Compounds in AB Red (stored at 8° C., 26 days): 2.79 µg/mL
- Stability of Plant-Derived Cannabinoid Compounds in AB Red (stored at 8° C., 29 days): 2.77 µg/mL
- Stability of Plant-Derived Cannabinoid Compounds in AB Red (stored at 8° C., 30 days): 2.77 µg/mL
- Stability of Plant-Derived Cannabinoid Compounds in AB Red (stored at 8° C., 60 days): 2.73 µg/mL
- Stability of Plant-Derived Cannabinoid Compounds in AB Red (stored at 8° C., 90 days): 2.80 µg/mL
- Stability of Plant-Derived Cannabinoid Compounds in AB Red (stored at 8° C., 120 days): 2.69 µg/mL
- Stability of Plant-Derived Cannabinoid Compounds in AB Red (stored at 8° C., 150 days): 2.69 µg/mL
- Stability of Plant-Derived Cannabinoid Compounds in AB Red (stored at 8° C., 180 days): 2.74 µg/mL
- Stability of Plant-Derived Cannabinoid Compounds in AB Red (stored at 8° C., 210 days): 2.69 µg/mL
- Stability of Plant-Derived Cannabinoid Compounds in AB Red (stored at 8° C., 240 days): 2.74 µg/mL
- Stability of Plant-Derived Cannabinoid Compounds in AB Red (stored at 8° C., 270 days): 2.76 µg/mL
- Stability of Plant-Derived Cannabinoid Compounds in AB Red (stored at 8° C., 300 days): 2.75 µg/mL
- Stability of Plant-Derived Cannabinoid Compounds in AB Red (stored at 8° C., 330 days): 2.71 µg/mL
- Stability of Plant-Derived Cannabinoid Compounds in AB Red (stored at 8° C., 360 days): 2.69 µg/mL
- Stability of Plant-Derived Cannabinoid Compounds in AB Red (stored at 8° C., 390 days): 2.72 µg/mL
- Stability of Plant-Derived Cannabinoid Compounds in AB Red (stored at 8° C., 420 days): 2.69 µg/mL
- Stability of Plant-Derived Cannabinoid Compounds in AB Red (stored at 8° C., 450 days): 2.71 µg/mL
- Stability of Plant-Derived Cannabinoid Compounds in AB Red (stored at 8° C., 480 days): 2.66 µg/mL
- Stability of Plant-Derived Cannabinoid Compounds in AB Red (stored at 8° C., 510 days): 2.62 µg/mL
- Stability of Plant-Derived Cannabinoid Compounds in AB Red (stored at 8° C., 540 days): 2.60 µg/mL
- Stability of Plant-Derived Cannabinoid Compounds in AB Red (stored at 8° C., 570 days): 2.58 µg/mL
- Stability of Plant-Derived Cannabinoid Compounds in AB Red (stored at 21-25° C., 0 days): 2.81 µg/mL
- Stability of Plant-Derived Cannabinoid Compounds in AB Red (stored at 21-25° C., 1 days): 2.73 µg/mL
- Stability of Plant-Derived Cannabinoid Compounds in AB Red (stored at 21-25° C., 2 days): 2.83 µg/mL
- Stability of Plant-Derived Cannabinoid Compounds in AB Red (stored at 21-25° C., 3 days): 2.78 µg/mL
- Stability of Plant-Derived Cannabinoid Compounds in AB Red (stored at 21-25° C., 5 days): 2.71 µg/mL
- Stability of Plant-Derived Cannabinoid Compounds in AB Red (stored at 21-25° C., 8 days): 2.74 µg/mL
- Stability of Plant-Derived Cannabinoid Compounds in AB Red (stored at 21-25° C., 9 days): 2.72 µg/mL
- Stability of Plant-Derived Cannabinoid Compounds in AB Red (stored at 21-25° C., 10 days): 2.73 µg/mL
- Stability of Plant-Derived Cannabinoid Compounds in AB Red (stored at 21-25° C., 11 days): 2.83 µg/mL
- Stability of Plant-Derived Cannabinoid Compounds in AB Red (stored at 21-25° C., 12 days): 2.70 µg/mL
- Stability of Plant-Derived Cannabinoid Compounds in AB Red (stored at 21-25° C., 15 days): 2.77 µg/mL
- Stability of Plant-Derived Cannabinoid Compounds in AB Red (stored at 21-25° C., 16 days): 2.81 µg/mL
- Stability of Plant-Derived Cannabinoid Compounds in AB Red (stored at 21-25° C., 17 days): 2.74 µg/mL
- Stability of Plant-Derived Cannabinoid Compounds in AB Red (stored at 21-25° C., 18 days): 2.80 µg/mL
- Stability of Plant-Derived Cannabinoid Compounds in AB Red (stored at 21-25° C., 19 days): 2.70 µg/mL
- Stability of Plant-Derived Cannabinoid Compounds in AB Red (stored at 21-25° C., 22 days): 2.70 µg/mL
- Stability of Plant-Derived Cannabinoid Compounds in AB Red (stored at 21-25° C., 23 days): 2.82 µg/mL
- Stability of Plant-Derived Cannabinoid Compounds in AB Red (stored at 21-25° C., 24 days): 2.78 µg/mL
- Stability of Plant-Derived Cannabinoid Compounds in AB Red (stored at 21-25° C., 25 days): 2.84 µg/mL
- Stability of Plant-Derived Cannabinoid Compounds in AB Red (stored at 21-25° C., 26 days): 2.70 µg/mL
- Stability of Plant-Derived Cannabinoid Compounds in AB Red (stored at 21-25° C., 29 days): 2.78 µg/mL
- Stability of Plant-Derived Cannabinoid Compounds in AB Red (stored at 21-25° C., 30 days): 2.77 µg/mL
- Stability of Plant-Derived Cannabinoid Compounds in AB Red (stored at 21-25° C., 60 days): 2.78 µg/mL
- Stability of Plant-Derived Cannabinoid Compounds in AB Red (stored at 21-25° C., 90 days): 2.75 µg/mL
- Stability of Plant-Derived Cannabinoid Compounds in AB Red (stored at 21-25° C., 120 days): 2.77 µg/mL
- Stability of Plant-Derived Cannabinoid Compounds in AB Red (stored at 21-25° C., 150 days): 2.75 µg/mL
- Stability of Plant-Derived Cannabinoid Compounds in AB Red (stored at 21-25° C., 180 days): 2.70 µg/mL
- Stability of Plant-Derived Cannabinoid Compounds in AB Red (stored at 21-25° C., 210 days): 2.70 µg/mL
- Stability of Plant-Derived Cannabinoid Compounds in AB Red (stored at 21-25° C., 240 days): 2.73 µg/mL
- Stability of Plant-Derived Cannabinoid Compounds in AB Red (stored at 21-25° C., 270 days): 2.73 µg/mL
- Stability of Plant-Derived Cannabinoid Compounds in AB Red (stored at 21-25° C., 300 days): 2.70 µg/mL
- Stability of Plant-Derived Cannabinoid Compounds in AB Red (stored at 21-25° C., 330 days): 2.75 µg/mL
- Stability of Plant-Derived Cannabinoid Compounds in AB Red (stored at 21-25° C., 360 days): 2.72 µg/mL
- Stability of Plant-Derived Cannabinoid Compounds in AB Red (stored at 21-25° C., 390 days): 2.65 µg/mL
- Stability of Plant-Derived Cannabinoid Compounds in AB Red (stored at 21-25° C., 420 days): 2.64 µg/mL
- Stability of Plant-Derived Cannabinoid Compounds in AB Red (stored at 21-25° C., 450 days): 2.68 µg/mL
- Stability of Plant-Derived Cannabinoid Compounds in AB Red (stored at 21-25° C., 480 days): 2.58 µg/mL
- Stability of Plant-Derived Cannabinoid Compounds in AB Red (stored at 21-25° C., 510 days): 2.66 µg/mL
- Stability of Plant-Derived Cannabinoid Compounds in AB Red (stored at 21-25° C., 540 days): 2.65 µg/mL
- Stability of Plant-Derived Cannabinoid Compounds in AB Red (stored at 21-25° C., 570 days): 2.58 µg/mL
